Laboratory results: PubChem BioAssay AID248 (DTP/NCI, 2004)
Several values for one entry are separate records, joined by “and”; a condition that tells them apart may be missing. Identical values can stand only once. Toxic doses and inconclusive results are not listed. No stated cut-off is given here; in the data, active means T/C of 150% or more; inactive means T/C below 125%.

Test system: L1210 leukemia ip in BDF1 mice, survival T/C
Assay: NCI In Vivo Anticancer Drug Screen. Data for tumor model L1210 Leukemia (intraperitoneal) in B6D2F1 (BDF1) mice
Details: endpoint: mean survival time, higher = longer survival
Summary of the method: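 In this screen, tumor-bearing mice given compound are compared to those given vehicle, and their survival values are reported as a treated-to-control quotient.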

[1] = dose: 100.0 mg/kg/injection, schedule: Q01DX009 (ip), vehicle: Klucel (hydroxypropylcellulose) (HPC)
[2] = dose: 100.0 mg/kg/injection, schedule: Q04DX003 (ip), vehicle: Klucel (hydroxypropylcellulose) (HPC)
[3] = dose: 200.0 mg/kg/injection, schedule: Q04DX003 (ip), vehicle: Klucel (hydroxypropylcellulose) (HPC)
[4] = dose: 100.0 mg/kg/injection, schedule: Q04DX003 (ip), vehicle: saline
[5] = dose: 200.0 mg/kg/injection, schedule: Q04DX003 (ip), vehicle: saline
[6] = dose: 400.0 mg/kg/injection, schedule: Q04DX003 (ip), vehicle: saline
[7] = dose: 100.0 mg/kg/injection, schedule: Q04DX003 (ip), vehicle: saline with Tween-80
[8] = dose: 200.0 mg/kg/injection, schedule: Q04DX003 (ip), vehicle: saline with Tween-80
[9] = dose: 400.0 mg/kg/injection, schedule: Q04DX003 (ip), vehicle: saline with Tween-80
[10] = dose: 200.0 mg/kg/injection, schedule: Q01DX009 (ip), vehicle: Klucel (hydroxypropylcellulose) (HPC)
[11] = dose: 400.0 mg/kg/injection, schedule: Q01DX009 (ip), vehicle: Klucel (hydroxypropylcellulose) (HPC)
[12] = dose: 100.0 mg/kg/injection, schedule: Q01DX001 (ip), vehicle: saline
[13] = dose: 200.0 mg/kg/injection, schedule: Q01DX001 (ip), vehicle: saline
[14] = dose: 400.0 mg/kg/injection, schedule: Q01DX001 (ip), vehicle: saline
[15] = dose: 50.0 mg/kg/injection, schedule: Q01DX001 (ip), vehicle: saline
[16] = dose: 400.0 mg/kg/injection, schedule: Q04DX003 (ip), vehicle: Klucel (hydroxypropylcellulose) (HPC)
[17] = dose: 100.0 mg/kg/injection, schedule: Q04DX002 (ip), vehicle: Klucel (hydroxypropylcellulose) (HPC)
[18] = dose: 200.0 mg/kg/injection, schedule: Q04DX002 (ip), vehicle: Klucel (hydroxypropylcellulose) (HPC)

Measured: T/C

C=CCOCC(O)CN(CCC(C)C)CCC(C)C (stereo not drawn)
inactive: dose: 25.0 mg/kg/injection, schedule: Q01DX009 (ip), vehicle: Klucel (hydroxypropylcellulose) (HPC) 95 % of control | dose: 50.0 mg/kg/injection, schedule: Q01DX009 (ip), vehicle: Klucel (hydroxypropylcellulose) (HPC) 97 % of control | [1] 96 % of control and 100 % of control | [2] 102 % of control | [3] 91 % of control

O=C(CCl)NCCO
inactive: [4] 108 % of control | [5] 90 % of control | [6] 104 % of control

CC1=NCC(C)(C)O1
inactive: [7] 98 % of control | [8] 95 % of control | [9] 98 % of control

CNCc1nc2ccccc2c(C)[n+]1[O-]
inactive: [4] 97 % of control | [5] 97 % of control | [6] 95 % of control

CC(NC(=O)OCc1ccccc1)C(=O)NC(Cc1ccc(O)cc1)C(=O)OCc1ccccc1 (stereo not drawn)
inactive: [7] 97 % of control | [8] 90 % of control | [9] 93 % of control

Nc1ccc(Cc2ccc(Br)cc2)cc1
inactive: dose: 75.0 mg/kg/injection, schedule: Q01DX001 (ip), vehicle: acetone 91 % of control | dose: 150.0 mg/kg/injection, schedule: Q01DX001 (ip), vehicle: acetone 94 % of control | dose: 300.0 mg/kg/injection, schedule: Q01DX001 (ip), vehicle: acetone 94 % of control

CCOc1ccc2nc(C)sc2c1
inactive: dose: 100.0 mg/kg/injection, schedule: Q04DX003 (ip), vehicle: acetone 97 % of control | dose: 200.0 mg/kg/injection, schedule: Q04DX003 (ip), vehicle: acetone 95 % of control | dose: 400.0 mg/kg/injection, schedule: Q04DX003 (ip), vehicle: acetone 93 % of control

COc1cc(OC)c(NC(=O)Nc2ccc([N+](=O)[O-])cc2OC)cc1Cl
inactive: [1] 101 % of control | [10] 95 % of control | [11] 97 % of control

[Mg+2]
inactive: [12] 96 % of control | dose: 100.0 mg/kg/injection, schedule: Q01DX009 (ip), vehicle: saline 95 % of control | [4] 93 % of control | [13] 91 % of control | dose: 200.0 mg/kg/injection, schedule: Q01DX009 (ip), vehicle: saline 95 % of control | [5] 89 % of control | [14] 96 % of control | dose: 400.0 mg/kg/injection, schedule: Q01DX009 (ip), vehicle: saline 97 % of control | [6] 88 % of control

COC1OCC2OC(C)(C)OC2C1OS(=O)(=O)c1ccc(C)cc1 (stereo not drawn)
inactive: [15] 91 % of control | [12] 104 % of control | [13] 102 % of control | [14] 98 % of control and 96 % of control

Nc1cccn2ncnc12
inactive: [12] 103 % of control | [13] 104 % of control | [14] 97 % of control

CC(C)OC(=O)Nc1ccc(Cl)cc1Cl
inactive: [2] 97 % of control | [3] 108 % of control | [16] 108 % of control

O=C1c2cccc3c([N+](=O)[O-])ccc(c23)C(=O)N1Cc1cccnc1
inactive: dose: 25.0 mg/kg/injection, schedule: Q04DX002 (ip), vehicle: Klucel (hydroxypropylcellulose) (HPC) 106 % of control | dose: 50.0 mg/kg/injection, schedule: Q04DX002 (ip), vehicle: Klucel (hydroxypropylcellulose) (HPC) 100 % of control | [17] 103 % of control and 86 % of control | [18] 101 % of control

c1ccc(-c2nnc(N3CCCCC3)nc2-c2ccccc2)cc1
inactive: [15] 100 % of control | [12] 88 % of control | [13] 94 % of control

COC(=O)c1ccc(=O)c2nc3/c(=C/O)c(O)cc(=O)c3[nH]c12
inactive: dose: 23.0 micrograms/kg/injection, schedule: Q01DX001 (ip), vehicle: acetone 90 % of control | dose: 23.0 micrograms/kg/injection, schedule: Q01DX009 (ip), vehicle: saline 100 % of control | dose: 23.0 micrograms/kg/injection, schedule: Q04DX003 (ip), vehicle: saline 110 % of control | dose: 47.0 micrograms/kg/injection, schedule: Q01DX001 (ip), vehicle: acetone 93 % of control | dose: 47.0 micrograms/kg/injection, schedule: Q01DX009 (ip), vehicle: saline 113 % of control | dose: 47.0 micrograms/kg/injection, schedule: Q04DX003 (ip), vehicle: saline 97 % of control | dose: 95.0 micrograms/kg/injection, schedule: Q01DX001 (ip), vehicle: acetone 92 % of control | dose: 95.0 micrograms/kg/injection, schedule: Q04DX003 (ip), vehicle: saline 101 % of control

O=S(=O)(c1ccccc1)C(CC(S(=O)(=O)c1ccccc1)S(=O)(=O)c1ccccc1)S(=O)(=O)c1ccccc1
inactive: dose: 100.0 mg/kg/injection, schedule: Q04DX002 (ip), vehicle: saline with Tween-80 119 % of control | dose: 200.0 mg/kg/injection, schedule: Q04DX002 (ip), vehicle: saline with Tween-80 97 % of control | dose: 400.0 mg/kg/injection, schedule: Q04DX002 (ip), vehicle: saline with Tween-80 90 % of control

N#CCCCCC(=O)c1ccc(O)cc1O
inactive: dose: 50.0 mg/kg/injection, schedule: Q01DX001 (ip), vehicle: Klucel (hydroxypropylcellulose) (HPC) 97 % of control | dose: 100.0 mg/kg/injection, schedule: Q01DX001 (ip), vehicle: Klucel (hydroxypropylcellulose) (HPC) 105 % of control | dose: 200.0 mg/kg/injection, schedule: Q01DX001 (ip), vehicle: Klucel (hydroxypropylcellulose) (HPC) 101 % of control

Oc1cccc(Nc2ccccc2)c1
inactive: [17] 106 % of control | [18] 95 % of control | dose: 400.0 mg/kg/injection, schedule: Q04DX002 (ip), vehicle: Klucel (hydroxypropylcellulose) (HPC) 95 % of control

OCCCCN=Cc1ccccc1O.OCCCCN=Cc1ccccc1O.[Cu]
inactive: dose: 9.5 mg/kg/injection, schedule: Q01DX001 (ip), vehicle: other 102 % of control | dose: 19.0 mg/kg/injection, schedule: Q01DX001 (ip), vehicle: other 108 % of control | dose: 38.0 mg/kg/injection, schedule: Q01DX001 (ip), vehicle: other 100 % of control | dose: 75.0 mg/kg/injection, schedule: Q01DX001 (ip), vehicle: other 96 % of control

CC(C)C(CN=C(N)N)c1cccc2ccccc12 (stereo not drawn)
inactive: dose: 12.5 mg/kg/injection, schedule: Q01DX009 (ip), vehicle: saline with Tween-80 100 % of control | dose: 25.0 mg/kg/injection, schedule: Q01DX009 (ip), vehicle: saline with Tween-80 103 % of control | dose: 25.0 mg/kg/injection, schedule: Q04DX002 (ip), vehicle: saline with Tween-80 100 % of control | dose: 50.0 mg/kg/injection, schedule: Q01DX009 (ip), vehicle: saline with Tween-80 91 % of control | dose: 50.0 mg/kg/injection, schedule: Q04DX002 (ip), vehicle: saline with Tween-80 100 % of control

Nc1ccc2c(c1)S(=O)(=O)c1cc(O)ccc1O2
inactive: [1] 98 % of control | [2] 102 % of control | [10] 95 % of control | [3] 97 % of control | [11] 96 % of control | [16] 102 % of control

O=C(O)CCCc1ccc([N+](=O)[O-])cc1Cl
inactive: dose: 100.0 mg/kg/injection, schedule: Q01DX009 (ip), vehicle: saline with Tween-80 103 % of control | dose: 200.0 mg/kg/injection, schedule: Q01DX009 (ip), vehicle: saline with Tween-80 105 % of control

CCCCCCCCCC(C)CCCCC (stereo not drawn)
inactive: dose: 25.0 mg/kg/injection, schedule: Q01DX001 (ip), vehicle: saline with Tween-80 93 % of control | dose: 50.0 mg/kg/injection, schedule: Q01DX001 (ip), vehicle: saline with Tween-80 98 % of control | dose: 100.0 mg/kg/injection, schedule: Q01DX001 (ip), vehicle: saline with Tween-80 95 % of control and 97 % of control | dose: 200.0 mg/kg/injection, schedule: Q01DX001 (ip), vehicle: saline with Tween-80 98 % of control

C(=N\N1CCN(/N=C/c2c[nH]c3ccccc23)CC1)/c1c[nH]c2ccccc12
inactive: [12] 94 % of control | [13] 94 % of control | [14] 94 % of control

CCc1c(Nc2ccc(Cl)c(Cl)c2)nc(N)[nH]c1=O
inactive: dose: 100.0 mg/kg/injection, schedule: Q01DX Z (ip), vehicle: methylcellulose (MC) 99 % of control | dose: 200.0 mg/kg/injection, schedule: Q01DX Z (ip), vehicle: methylcellulose (MC) 100 % of control

CN(Cc1ccccc1)C(=O)/C=C/c1ccccc1
inactive: [1] 93 % of control | [2] 94 % of control | [10] 96 % of control | [3] 96 % of control | [16] 89 % of control

Cc1cc(=O)[nH]n1-c1ccc([N+](=O)[O-])cc1
inactive: [2] 94 % of control | [3] 97 % of control | [16] 89 % of control
